Assay results as given in the NIST ThermoML archive (doi:10.1021/acs.jced.7b00106).
Numbers after ± are expanded uncertainties.

Conditions: Hot wire method

FC(F)(F)/C=C/Cl [(E)-1-chloro-3,3,3-trifluoroprop-1-ene]
Conditions	thermal conductivity [W/m/K]
343.36 K, 65455 kPa, Liquid	0.09919 ± 0.0076
343.39 K, 244 kPa, Gas	0.01403 ± 0.0005
343.41 K, 34281 kPa, Liquid	0.08798 ± 0.0079
343.43 K, 53923 kPa, Liquid	0.09546 ± 0.008
343.44 K, 254 kPa, Gas	0.0143 ± 0.0005
343.54 K, 43743 kPa, Liquid	0.09133 ± 0.0079
343.62 K, 34264 kPa, Liquid	0.08757 ± 0.0066
343.63 K, 177 kPa, Gas	0.01444 ± 0.00051
343.68 K, 26051 kPa, Liquid	0.08479 ± 0.0055
343.71 K, 368 kPa, Gas	0.01422 ± 0.0005
343.72 K, 113 kPa, Gas	0.01433 ± 0.00051
343.77 K, 19020 kPa, Liquid	0.08131 ± 0.0047
343.82 K, 116 kPa, Gas	0.01436 ± 0.00051
343.85 K, 65463 kPa, Liquid	0.09884 ± 0.0065
343.89 K, 252 kPa, Gas	0.01433 ± 0.00051
343.9 K, 26047 kPa, Liquid	0.08436 ± 0.0032
343.93 K, 12786 kPa, Liquid	0.07777 ± 0.0024
343.93 K, 53925 kPa, Liquid	0.09489 ± 0.0078
343.97 K, 19023 kPa, Liquid	0.08066 ± 0.0046
344.06 K, 43740 kPa, Liquid	0.09102 ± 0.0049
344.06 K, 65472 kPa, Liquid	0.09859 ± 0.0066
344.08 K, 176 kPa, Gas	0.01441 ± 0.00051
344.15 K, 365 kPa, Gas	0.0142 ± 0.0005
344.15 K, 53918 kPa, Liquid	0.09481 ± 0.0079
344.17 K, 12778 kPa, Liquid	0.07722 ± 0.0032
344.2 K, 113 kPa, Gas	0.01446 ± 0.00051
344.28 K, 117 kPa, Gas	0.01435 ± 0.00051
344.3 K, 43734 kPa, Liquid	0.09086 ± 0.005
344.35 K, 250 kPa, Gas	0.01435 ± 0.00051
344.48 K, 465 kPa, Gas	0.01396 ± 0.00049
344.56 K, 175 kPa, Gas	0.01444 ± 0.00051
344.7 K, 114 kPa, Gas	0.01426 ± 0.0005
344.79 K, 119 kPa, Gas	0.01436 ± 0.00051
344.84 K, 248 kPa, Gas	0.01433 ± 0.00051
344.84 K, 463 kPa, Gas	0.01404 ± 0.00058
344.95 K, 465 kPa, Gas	0.01434 ± 0.00054
345.08 K, 174 kPa, Gas	0.01445 ± 0.00051
345.19 K, 360 kPa, Gas	0.01419 ± 0.0005
345.23 K, 114 kPa, Gas	0.01452 ± 0.00051
345.31 K, 120 kPa, Gas	0.01441 ± 0.00051
345.34 K, 463 kPa, Gas	0.01431 ± 0.00052
345.37 K, 246 kPa, Gas	0.01436 ± 0.00051
345.44 K, 465 kPa, Gas	0.0143 ± 0.0005
345.7 K, 358 kPa, Gas	0.01431 ± 0.0005
345.9 K, 245 kPa, Gas	0.01451 ± 0.00051
361.58 K, 586 kPa, Fluid (supercritical or subcritical phases)	0.01605 ± 0.0014
361.67 K, 483 kPa, Fluid (supercritical or subcritical phases)	0.01602 ± 0.0013
361.68 K, 45282 kPa, Liquid	0.08799 ± 0.0024
361.69 K, 33938 kPa, Liquid	0.0832 ± 0.0012
361.69 K, 33954 kPa, Liquid	0.08326 ± 0.0029
361.7 K, 45281 kPa, Liquid	0.08796 ± 0.0018
361.73 K, 23489 kPa, Liquid	0.07844 ± 0.0025
361.74 K, 23503 kPa, Liquid	0.07846 ± 0.0029
361.77 K, 371 kPa, Fluid (supercritical or subcritical phases)	0.01613 ± 0.0014
361.79 K, 26408 kPa, Liquid	0.07982 ± 0.0022
361.8 K, 26407 kPa, Liquid	0.07977 ± 0.0018
361.83 K, 39898 kPa, Liquid	0.0857 ± 0.0085
361.83 K, 39907 kPa, Liquid	0.0857 ± 0.0086
361.88 K, 33923 kPa, Liquid	0.08317 ± 0.0014
361.89 K, 33938 kPa, Liquid	0.0832 ± 0.0017
361.92 K, 588 kPa, Fluid (supercritical or subcritical phases)	0.01611 ± 0.0016
361.93 K, 45278 kPa, Liquid	0.08791 ± 0.0016
361.94 K, 45270 kPa, Liquid	0.08806 ± 0.0016
361.98 K, 23477 kPa, Liquid	0.07836 ± 0.00088
361.98 K, 23492 kPa, Liquid	0.07838 ± 0.0018
362.01 K, 484 kPa, Fluid (supercritical or subcritical phases)	0.01607 ± 0.002
362.05 K, 26376 kPa, Liquid	0.07972 ± 0.0009
362.05 K, 26398 kPa, Liquid	0.07971 ± 0.0012
362.05 K, 39862 kPa, Liquid	0.08563 ± 0.0016
362.08 K, 39906 kPa, Liquid	0.08546 ± 0.0021
362.14 K, 33914 kPa, Liquid	0.08314 ± 0.00095
362.14 K, 33942 kPa, Liquid	0.08313 ± 0.0019
362.16 K, 19344 kPa, Liquid	0.07625 ± 0.00088
362.18 K, 23467 kPa, Liquid	0.07857 ± 0.0022
362.19 K, 8420 kPa, Liquid	0.06998 ± 0.0011
362.2 K, 3010 kPa, Liquid	0.06622 ± 0.00079
362.2 K, 8440 kPa, Liquid	0.07 ± 0.00083
362.2 K, 45249 kPa, Liquid	0.0878 ± 0.004
362.2 K, 45283 kPa, Liquid	0.08787 ± 0.0021
362.21 K, 3023 kPa, Liquid	0.06627 ± 0.00076
362.21 K, 23488 kPa, Liquid	0.07836 ± 0.0013
362.23 K, 790 kPa, Liquid	0.06431 ± 0.0035
362.23 K, 805 kPa, Liquid	0.06452 ± 0.0023
362.24 K, 5520 kPa, Liquid	0.06804 ± 0.00086
362.24 K, 5538 kPa, Liquid	0.06811 ± 0.001
362.26 K, 19400 kPa, Liquid	0.07636 ± 0.00085
362.27 K, 587 kPa, Fluid (supercritical or subcritical phases)	0.01619 ± 0.002
362.3 K, 11679 kPa, Liquid	0.07201 ± 0.00085
362.3 K, 11690 kPa, Liquid	0.07201 ± 0.00091
362.31 K, 39856 kPa, Liquid	0.08563 ± 0.0017
362.31 K, 39891 kPa, Liquid	0.08561 ± 0.0014
362.32 K, 26374 kPa, Liquid	0.07971 ± 0.0011
362.32 K, 26405 kPa, Liquid	0.07971 ± 0.0011
362.37 K, 484 kPa, Fluid (supercritical or subcritical phases)	0.0162 ± 0.0018
362.41 K, 33911 kPa, Liquid	0.0832 ± 0.0013
362.42 K, 8419 kPa, Liquid	0.06999 ± 0.0017
362.42 K, 33938 kPa, Liquid	0.08309 ± 0.001
362.44 K, 8433 kPa, Liquid	0.06997 ± 0.0017
362.46 K, 3010 kPa, Liquid	0.0662 ± 0.0012
362.47 K, 3011 kPa, Liquid	0.0662 ± 0.0012
362.47 K, 15419 kPa, Liquid	0.0741 ± 0.00083
362.47 K, 23460 kPa, Liquid	0.07827 ± 0.0058
362.48 K, 5516 kPa, Liquid	0.06801 ± 0.0016
362.48 K, 15443 kPa, Liquid	0.07414 ± 0.001
362.48 K, 23476 kPa, Liquid	0.07831 ± 0.004
362.48 K, 45268 kPa, Liquid	0.08777 ± 0.0021
362.48 K, 45271 kPa, Liquid	0.08777 ± 0.0021
362.49 K, 790 kPa, Liquid	0.06443 ± 0.0012
362.49 K, 5526 kPa, Liquid	0.06804 ± 0.0011
362.5 K, 790 kPa, Liquid	0.06446 ± 0.0013
362.51 K, 370 kPa, Fluid (supercritical or subcritical phases)	0.01626 ± 0.0014
362.54 K, 11661 kPa, Liquid	0.0719 ± 0.0019
362.55 K, 11680 kPa, Liquid	0.07196 ± 0.0015
362.57 K, 39863 kPa, Liquid	0.08553 ± 0.0019
362.58 K, 39864 kPa, Liquid	0.08552 ± 0.0019
362.6 K, 26399 kPa, Liquid	0.07968 ± 0.0016
362.6 K, 26401 kPa, Liquid	0.07967 ± 0.0016
362.61 K, 19433 kPa, Liquid	0.07636 ± 0.0012
362.65 K, 15399 kPa, Liquid	0.07408 ± 0.001
362.66 K, 587 kPa, Fluid (supercritical or subcritical phases)	0.0163 ± 0.0022
362.66 K, 15425 kPa, Liquid	0.07408 ± 0.00098
362.67 K, 8422 kPa, Liquid	0.06992 ± 0.0013
362.68 K, 8413 kPa, Liquid	0.06988 ± 0.0018
362.69 K, 33907 kPa, Liquid	0.08302 ± 0.0059
362.69 K, 33929 kPa, Liquid	0.08306 ± 0.0032
362.7 K, 19433 kPa, Liquid	0.07633 ± 0.0015
362.74 K, 5502 kPa, Liquid	0.06792 ± 0.0012
362.75 K, 3008 kPa, Liquid	0.06615 ± 0.00098
362.75 K, 3026 kPa, Liquid	0.06618 ± 0.00099
362.75 K, 5530 kPa, Liquid	0.06798 ± 0.00077
362.75 K, 23458 kPa, Liquid	0.07811 ± 0.0018
362.75 K, 23492 kPa, Liquid	0.07827 ± 0.002
362.75 K, 45227 kPa, Liquid	0.08785 ± 0.0013
362.76 K, 484 kPa, Fluid (supercritical or subcritical phases)	0.01624 ± 0.0016
362.76 K, 45255 kPa, Liquid	0.08771 ± 0.0017
362.77 K, 783 kPa, Liquid	0.06438 ± 0.0012
362.77 K, 802 kPa, Liquid	0.06442 ± 0.00097
362.8 K, 11664 kPa, Liquid	0.07188 ± 0.0012
362.81 K, 11670 kPa, Liquid	0.07191 ± 0.00093
362.83 K, 15386 kPa, Liquid	0.07403 ± 0.0011
362.86 K, 39872 kPa, Liquid	0.08551 ± 0.00099
362.87 K, 15400 kPa, Liquid	0.07403 ± 0.0015
362.87 K, 39835 kPa, Liquid	0.08548 ± 0.0013
362.89 K, 367 kPa, Fluid (supercritical or subcritical phases)	0.01631 ± 0.00069
362.89 K, 26375 kPa, Liquid	0.07958 ± 0.0024
